{"source": "patent US9487551B2", "about": "“Small molecule compounds that control mammal-pathogenic nematodes” (California Institute of Technology, priority 2011, dated 2016)", "key": {"C. elegans [1]": {"tested_on": "C. elegans", "assay": "Ascaroside function (Table 12)", "assay_type": "in vivo, Caenorhabditis elegans", "set-up": "key to Attract Females/Herm. / Promote Dauer Formation / Attract Males: A very strong result of affecting nematode behavior is designated in the table as “strong.”", "conditions": "listed = has this function", "procedure": "Various ascarosides and ascaroside blends were administered to various nematodes described below (Table 12). […] A very strong result of affecting nematode behavior is designated in the table as “strong.”"}, "ASI sensory neurons": {"tested_on": "ASI sensory neurons", "conditions": "in vivo; cited from earlier work"}, "C. elegans [2]": {"tested_on": "C. elegans", "assay": "Quadrant chemotaxis assay", "assay_type": "in vivo", "conditions": "for chemotaxis of hermaphrodites from all tested strains: 1 pM icas#3, except npr-1(ad609) for the blend", "procedure": "Chemotaxis to both non-indole and indole ascarosides was assessed on 10 cm four-quadrant petri plates (Wicks et al., Dev. Biol. 221:295-307 (2000), which is hereby incorporated by reference in its entirety). Each quadrant was separated from adjacent ones by plastic spacers (FIG. 1B). Pairs of opposite quadrants were filled with nematode growth medium (NGM) agar containing either indole ascarosides or non-indole ascarosides at different concentrations. Animals were washed gently in a S-basal buffer, placed in the center of a four-quadrant plate with ascarosides in alternating quadrants, and scored after 15 minutes and 30 minutes. A chemotaxis index was calculated as: (the number of animals on ascaroside quadrants minus the number of animals on buffer quadrants)/(total number of animals).\nChemotaxis to hbas#3 was assessed on 10 cm four-quadrant petri plates (Wicks et al., Dev. Biol. 221:295-307 (2000), which is hereby incorporated by reference in its entirety). Each quadrant was separated from adjacent ones by plastic spacers. Pairs of opposite quadrants were filled with nematode growth medium (NGM) agar containing different concentrations of hbas#3. Animals were washed gently in an S-basal buffer and placed in the center of a four-quadrant plate with ascarosides in alternating quadrants, and scored after 15 minutes and 30 minutes. A chemotaxis index was calculated as: (the number of animals on ascaroside quadrants minus the number of animals on buffer quadrants)/(total number of animals)."}, "C. elegans [3]": {"tested_on": "C. elegans", "assay": "Measurement of locomotory parameters (automated worm-tracking)", "assay_type": "in vivo", "procedure": "Reversal frequency and velocity were measured using an automated worm-tracking system (Pungaliya et al., PNAS 106:7708-13 (2009); Srinivasan et al., Nature 454:1115-18 (2008), which are hereby incorporated by reference in their entirety)."}, "C. elegans [4]": {"tested_on": "C. elegans", "assay": "Spot attraction assay", "assay_type": "in vivo", "procedure": "The spot attraction assays were conducted according to a previously reported method (Pungaliya et al., PNAS 106:7708-13 (2009); Srinivasan et al., Nature 454:1115-18 (2008), which are hereby incorporated by reference in their entirety). For both C. elegans hermaphrodites and males, 50-60 worms were harvested daily at the fourth larval stage (L4) and stored segregatedly by sex at 20° C. overnight, to be used as young adults the following day. For the competition experiments, two conditions were used: 120 nM ascr#3 and 10 nM icas#3 (Condition 1), or 12 μM ascr#3 and 1 μM icas#3 (Condition 2) in water containing 10% ethanol. Aliquots were stored at −20° C. in 20 μL tubes. 10% ethanol in water was used as control.\nAttraction assays with hbas#3 were conducted as previously reported (Srinivasan et al., Nature 454:1115-18 (2008); Pungaliya et al., Proc. Natl. Acad. Sci. U.S.A. 106:7708-13 (2009), which are hereby incorporated by reference in their entirety). For the attraction assays, 50-60 hermaphrodite worms were harvested daily at the early fourth larval stage (L4) and stored at 20° C. overnight to be used as young adults the following day. Hbas#3 was dissolved in water containing 10% ethanol. Aliquots were stored at −20° C. in 20 μL tubes. 10% ethanol in water was used as control."}, "C. elegans [5]": {"tested_on": "C. elegans", "assay": "Aggregation assay", "assay_type": "in vivo", "procedure": "Aggregation behavior of worms was measured using assays reported in de Bono & Bargmann, Cell 94:679-89 (1998), which is hereby incorporated by reference in its entirety. Aggregation assays were conducted on standard NGM plates. Plates containing indole ascarosides were made by adding the indole ascaroside stock solution to the NGM media before they were poured onto the plates. These plates were dried at room temperature for 2 to 3 days. Control plates were treated similarly, except that ethanol solutions instead of icas solutions were added to the plates, corresponding to the amount of ethanol introduced via the icas solutions. Final ethanol concentrations of the plates were below 0.1% for all conditions. After drying, both control plates and plates containing indole ascarosides were seeded with 150 μl of an overnight culture of E. coli OP50 using a micropipette, and were allowed to dry for 2 days at room temperature. For “low worm density” experiments, 20 worms were placed onto the lawn and left at 20° C. for 3 hours. For “high worm density” experiments, approximately 120 worms were placed onto the bacterial lawn and left at 20° C. for 3 hours. Aggregation behavior was quantified as the number of animals that were in touch with two or more animals at greater than 50% of their body length."}, "AIA interneurons": {"tested_on": "AIA interneurons", "assay": "Calcium imaging (G-CaMP)", "assay_type": "in vivo, C. elegans", "conditions": "1 μM icas#3", "description": "Transgenic lines that express the genetically encoded Ca^2+ sensor in ASK (kyEx2866) and AIA (kyEx2916) (Macosko et al., Nature 458:1171-75 (2009), which is hereby incorporated by reference in its entirety) were used for calcium imaging. Young adults or adult worms were inserted into an “Olfactory chip” microfluidic device (Chronis et al., Nat. Methods 4:727-31 (2007), which is hereby incorporated by reference in its entirety). Dilutions of icas#3 were done with S-basal buffer (with no cholesterol). As stock solutions of icas#3 contained small amounts of ethanol, equivalent amounts of ethanol were added to the S-basal control flow.\nImaging was conducted using an inverted Zeiss microscope equipped with an Andor camera. Exposure time for image acquisition was 300 milliseconds. Before imaging the ASK neuron, the worm was exposed to blue light for 3 minutes as ASK responds to the blue light itself. […] Movies were analyzed using custom-made Matlab scripts. The first peak of fluorescence immediately after exposure to buffer or icas#3 was chosen for calculating the average change in fluorescence upon exposure to either buffer or icas#3. The value for this maximum was then subtracted from the mean fluorescence during the 5 seconds before the delivery of icas#3/buffer (corresponding to the region between 5 to 10 seconds in FIG. 2D)."}}, "note": "Entries after “also recorded” stand apart in the source; their conditions may differ.", "data": [{"smiles": "C[C@@H]1O[C@@H](OCCC(=O)O)[C@H](O)C[C@H]1O", "note": "[ascr#5]", "values": [{"measurement": "Promote Dauer Formation", "setting": "C. elegans [1]", "value": "ascr#5 ([strong])"}, {"measurement": "Repel Females/Herm.", "setting": "C. elegans [1]", "value": "ascr#5"}, {"measurement": "calcium transients in the ASI sensory neurons", "setting": "ASI sensory neurons", "value": "does not elicit calcium transients"}]}, {"smiles": "C[C@H](CCCC/C=C/C(=O)O)O[C@@H]1O[C@@H](C)[C@H](OC(=O)c2c[nH]c3ccccc23)C[C@H]1O", "note": "[icas#3]", "values": [{"measurement": "chemotaxis of hermaphrodites from all tested strains", "setting": "C. elegans [2]; after 15 minutes, 10 nM of each ascr#2,3,5", "value": "attracted"}, {"measurement": "chemotaxis of hermaphrodites from all tested strains", "setting": "C. elegans [2]; after 30 minutes, 10 nM ascr#2,3,5", "value": "attracted"}, {"measurement": "response of daf-22 hermaphrodites", "setting": "C. elegans [2]; daf-22 mutant", "value": "as strongly as N2 worms"}, {"measurement": "concentration as low as which resulted in strong attraction of hermaphrodites", "setting": "C. elegans [2]; in the presence and absence of food", "value": 1, "unit": "pM"}, {"measurement": "chemotaxis of npr-1(ad609) hermaphrodites", "setting": "C. elegans [2]; npr-1(ad609) mutant", "value": "strongly attracted"}, {"measurement": "chemotaxis of social wild-type hermaphrodites", "setting": "C. elegans [2]; strains RC301 and CB4856", "value": "strongly attracted"}, {"measurement": "worm velocity", "setting": "C. elegans [3]; 1-10 pM icas#3", "value": "not significantly reduced"}, {"measurement": "mean stopped duration", "setting": "C. elegans [3]; aggregation-inducing concentrations, N2 hermaphrodites", "value": "strongly increase"}, {"measurement": "reversal frequency and velocity of ASK-ablated hermaphrodites", "setting": "C. elegans [3]; icas#3 plates", "value": "neither increased reversal frequency nor decreased velocity"}, {"measurement": "attraction in spot attraction assay", "setting": "C. elegans [4]; 1 pmol (high concentrations), N2 hermaphrodites and him-5 males", "value": "attractive to both C. elegans sexes; also recorded: attracted both males and hermaphrodites"}, {"measurement": "attraction after ablation of ASI neurons", "setting": "C. elegans [4]; ASI-ablated hermaphrodites", "value": "no significant effect"}, {"measurement": "attraction after ablation of ASK sensory neurons", "setting": "C. elegans [4]; ASK-ablated hermaphrodites", "value": "near complete loss of attraction"}, {"measurement": "attraction of daf-22 hermaphrodites", "setting": "C. elegans [4]; daf-22 mutant", "value": "attracted; also recorded: as strongly as N2 worms"}, {"measurement": "attraction of AIA-deficient worms", "setting": "C. elegans [4]; hyperactive MEC-4 in AIA interneuron", "value": "did not show any attraction"}, {"measurement": "attraction of hermaphrodites", "setting": "C. elegans [4]; low concentrations, N2 hermaphrodites", "value": "strongly attractive to hermaphrodites"}, {"measurement": "attraction of males", "setting": "C. elegans [4]; low concentrations, males", "value": "no longer attracted"}, {"measurement": "attraction of npr-1(ad609) hermaphrodites", "setting": "C. elegans [4]; npr-1(ad609) mutant", "value": "strongly attracted"}, {"measurement": "attraction of social wild-type hermaphrodites", "setting": "C. elegans [4]; strains RC301 and CB4856", "value": "strongly attracted"}, {"measurement": "response after ablation of RMG interneuron", "setting": "C. elegans [4]; wild-type and ncs-1::gfp worms, RMG ablated", "value": "did not affect icas#3 response"}, {"measurement": "aggregation of CB4856", "setting": "C. elegans [5]; 1 nM of icas#3", "value": "not significantly different from the control"}, {"measurement": "aggregation of hermaphrodites lacking the ASK neurons", "setting": "C. elegans [5]; any of the tested concentrations", "value": "did not aggregate"}, {"measurement": "aggregation of daf-22 hermaphrodites", "setting": "C. elegans [5]; compared with N2", "value": "less aggregation than N2 worms at 1 pM icas#3 but not at 10 pM icas#3"}, {"measurement": "aggregation of solitary and social hermaphrodites", "setting": "C. elegans [5]; constant background concentration", "value": "strongly increased the propensity"}, {"measurement": "aggregation of npr-1(ad609) hermaphrodites", "setting": "C. elegans [5]; entire tested concentration range, no drop off", "value": "increased aggregation"}, {"measurement": "aggregation of him-5 males", "setting": "C. elegans [5]; icas#3 plates", "value": "significantly increased"}, {"measurement": "concentration window for hermaphrodite attraction and aggregation", "setting": "C. elegans [5]; in vivo", "value": "femtomolar to low picomolar"}, {"measurement": "concentration as low as which gave a very strong increase in aggregation", "setting": "C. elegans [5]; low worm density, solitary and social hermaphrodites", "value": 10, "unit": "fM"}, {"measurement": "Attract Females/Herm.", "setting": "C. elegans [1]", "value": "icas#3 ([strong])"}, {"measurement": "Attract Males", "setting": "C. elegans [1]", "value": "icas#3 ([strong])"}, {"measurement": "G-CaMP fluorescence in the AIA neurons", "setting": "AIA interneurons", "value": "significantly increased G-CaMP fluorescence"}]}]}
